The conditions of data set [1]: rcm bond, Hoveyda-Grubbs II, DCE.
For data set [2] the following is noted: rcm bond, Hoveyda-Grubbs II, then NaOH, DCE.
Data set [3] has as its system recombinant NL-Rluc virus. Put plainly: Inhibition of HIV replication (NL-RLuc luciferase reporter virus in MT-2 cells). Format: cell-based. The following applies: Human immunodeficiency virus 1, MT2, 120 h.

Read-outs that look alike come from different tables or passages of the source.

As for `COC(=O)[C@@H](OC(C)(C)C)c1c(C)cn2nc3cc2c1N1CCC(C)(CC1)OCC=CC(C)COc1ccc(C)cc1-c1cccc-3c1` (some centres unmarked), the ring closure, isolated yield in data set [1] (from C=CCOC1(C)CCN(c2c([C@H](OC(C)(C)C)C(=O)OC)c(C)cn3nc(-c4cccc(-c5cc(C)ccc5OCC(C)C=C)c4)cc23)CC1, 20-membered ring, 2.13 mM, 85.0 °C, 2.0 h) turned out to be 82%.
As to `COC(=O)[C@@H](OC(C)(C)C)c1c(C)cn2nc3cc2c1N1CCC(C)(CC1)OCC=CCC[C@H](C)Oc1ccc(C)cc1-c1cccc-3c1`, the ring closure, yield after HPLC in data set [2] (from C=CCC[C@H](C)Oc1ccc(C)cc1-c1cccc(-c2cc3c(N4CCC(C)(OCC=C)CC4)c([C@H](OC(C)(C)C)C(=O)OC)c(C)cn3n2)c1, 21-membered ring, then H2, Pd/C, 1.86 mM, 85.0 °C, 3.0 h, 3 steps) stood at 40.6%.
`COC(=O)[C@@H](OC(C)(C)C)c1c(C)cn2nc3cc2c1N1CCC(C)(CC1)OCC=CCOc1ccccc1CC(O)CNC3=O` (some centres unmarked) came in with a ring closure, isolated yield in data set [1] (from C=CCOc1ccccc1CC(O)CNC(=O)c1cc2c(N3CCC(C)(OCC=C)CC3)c([C@H](OC(C)(C)C)C(=O)OC)c(C)cn2n1, 21-membered ring, 1.81 mM, 70.0 °C, 3.0 h) of 58%.
On to `COC(=O)[C@@H](OC(C)(C)C)c1c(C)cn2nc3cc2c1N1CCC(C)(CC1)OCC=CC[C@H](C)Oc1cc(F)ccc1-c1cccc-3c1`, for which the ring closure, yield after HPLC in data set [2] (from C=CCOC1(C)CCN(c2c([C@H](OC(C)(C)C)C(=O)OC)c(C)cn3nc(-c4cccc(-c5ccc(F)cc5O[C@@H](C)CC=C)c4)cc23)CC1, 20-membered ring, then H2, Pd/C, 1.57 mM, 85.0 °C, 2.0 h, 3 steps) is 49.8%.
Take `COC(=O)[C@@H](OC(C)(C)C)c1c(C)cn2nc3cc2c1N1CCC(C)(CC1)OCC=CC[C@H](C)Oc1ccc(C#N)cc1-c1cccc-3c1`: in data set [1] (from C=CCOC1(C)CCN(c2c([C@H](OC(C)(C)C)C(=O)OC)c(C)cn3nc(-c4cccc(-c5cc(C#N)ccc5O[C@@H](C)CC=C)c4)cc23)CC1, 20-membered ring, 1.51 mM, 85.0 °C, 2.0 h), the ring closure, isolated yield turned out to be 82%.
In turn, `COC(=O)[C@@H](OC(C)(C)C)c1c(C)cn2nc3cc2c1N1CCC(C)(CC1)OCC=CC[C@H](C)Oc1ccc(C)c(F)c1-c1cccc-3c1` came in with a ring closure, yield after HPLC in data set [2] (from C=CCOC1(C)CCN(c2c([C@H](OC(C)(C)C)C(=O)OC)c(C)cn3nc(-c4cccc(-c5c(O[C@@H](C)CC=C)ccc(C)c5F)c4)cc23)CC1, 20-membered ring, then H2, Pd/C, 2.0 mM, 80.0 °C, 4.0 h, 3 steps) of 11%.
Consider `COC(=O)[C@@H](OC(C)(C)C)c1c(C)cn2nc3cc2c1N1CCC(C)(CC1)OCC=CC[C@H](C)Oc1ccc(F)cc1-c1cccc-3c1`, for which the ring closure, yield after HPLC in data set [2] (from C=CCOC1(C)CCN(c2c([C@H](OC(C)(C)C)C(=O)OC)c(C)cn3nc(-c4cccc(-c5cc(F)ccc5O[C@@H](C)CC=C)c4)cc23)CC1, 20-membered ring, then H2, Pd/C, 2.02 mM, 85.0 °C, 2.0 h, 3 steps) is 23.2%.
The compound `COC(=O)[C@@H](OC(C)(C)C)c1c(C)cn2nc3cc2c1N1CCC(C)(CC1)OCC=CC[C@H](C)Oc1cccc(F)c1-c1cccc-3c1` registered a ring closure, yield after HPLC in data set [2] (from C=CCOC1(C)CCN(c2c([C@H](OC(C)(C)C)C(=O)OC)c(C)cn3nc(-c4cccc(-c5c(F)cccc5O[C@@H](C)CC=C)c4)cc23)CC1, 20-membered ring, then H2, Pd/C, 2.0 mM, 85.0 °C, 2.0 h, 3 steps) of 19.6%.
In data set [2] (from C=CCCC1(C)CCN(c2c([C@H](OC(C)(C)C)C(=O)OC)c(C)cn3nc(C(=O)NCc4ccc(F)cc4OCC=C)cc23)CC1, 19-membered ring, 1.57 mM, 70.0 °C, 2.0 h, 2 steps), `COC(=O)[C@@H](OC(C)(C)C)c1c(C)cn2nc3cc2c1N1CCC(C)(CCC=CCOc2cc(F)ccc2CNC3=O)CC1` returned a ring closure, yield after HPLC of 53.5%.
The term EC50 denotes the concentration needed to bring the measured effect to its halfway point. `Cc1cn2nc3cc2c(c1[C@H](OC(C)(C)C)C(=O)O)N1CCC(C)(CC1)OCCCC[C@H](C)Oc1cc(F)ccc1-c1cccc-3c1` [Example 38, (2S)-2-(tert-Butoxy)-2-[(22S)-18-fluoro-4,22,28-trimethyl-21,27-dioxa-1,6,34-triazahexacyclo[26.2.2.1^6,^9.1^10,^14.0^2,^7.0^15,^20]tetratriaconta-2,4,7,9 (34),10(33),11,13,15 (20),16,18-decaen-3-yl]acetic acid]: the EC50 in data set [3] was 0.03 µM.
Consider `Cc1ccc2c(c1F)-c1cccc(c1)-c1cc3c(c([C@H](OC(C)(C)C)C(=O)O)c(C)cn3n1)N1CCC(C)(CC1)OCCCC[C@H](C)O2` [Example 39, (2S)-2-(tert-Butoxy)-2-[(22S)-16-fluoro-4,17,22,28-tetramethyl-21,27-dioxa-1,6,34-triazahexacyclo[26.2.2.1^6,^9.1^10,^14.0^2,^7.0^15,^20]tetratriaconta-2,4,7,9(34),10(33),11,13,15(20),16,18-decaen-3-yl]acetic acid], for which, in data set [3], the EC50 worked out at 0.038 µM.
On the same count and under the same terms, the figure for `Cc1ccc2c(c1F)-c1cccc(c1)-c1cc3c(c([C@H](OC(C)(C)C)C(=O)O)c(C)cn3n1)N1CCC(C)(CC1)OCCCC[C@@H](C)O2` [Example 40, (2S)-2-(tert-Butoxy)-2-[(22R)-16-fluoro-4,17,22,28-tetramethyl-21,27-dioxa-1,6,34-triazahexacyclo[26.2.2.1^6,^9.1^10,^14.0^2,^7.0^15,^20]tetratriaconta-2,4,7,9(34),10(33),11,13,15(20),16,18-decaen-3-yl]acetic acid] is 2.35 µM.
Take `CCCOC1(C)CCN(c2c([C@H](OC(C)(C)C)C(=O)O)c(C)cn3nc(-c4cccc(-c5c(O[C@@H](C)CCC)ccc(C)c5F)c4)cc23)CC1` [Example 41, (2S)-2-(tert-Butoxy)-2-[2-(3-{2-fluoro-3-methyl-6-[(2S)-pentan-2-yloxy]phenyl}phenyl)-6-methyl-4-(4-methyl-4-propoxypiperidin-1-yl)pyrazolo[1,5-a]pyridin-5-yl]acetic acid]: in data set [3], the EC50 stood at 0.728 µM.
Consider `Cc1cn2nc3cc2c(c1[C@H](OC(C)(C)C)C(=O)O)N1CCC(C)(CC1)OCCCC[C@H](C)Oc1ccc(C#N)cc1-c1cccc-3c1` [Example 42, (2S)-2-(tert-Butoxy)-2-[(22S)-17-cyano-4,22,28-trimethyl-21,27-dioxa-1,6,34-triazahexacyclo[26.2.2.1^6,^9.1^10,^14.0^2,^7.0^15,^20]tetratriaconta-2,4,7,9 (34),10(33),11,13,15(20),16,18-decaen-3-yl]acetic acid], for which, in data set [3], the EC50 is 0.007 µM.

The values are drawn from patent publication US9527842B2, “Inhibitors of human immunodeficiency virus replication” (priority 2013, dated 2016).
